The record followed here is ChEMBL document CHEMBL1135046, “Synthesis of an alpha-aminophosphonate nucleoside as an inhibitor of S-adenosyl-L-homocysteine hydrolase” (Bioorg Med Chem Lett, 2002).

In data set [1] the target is T1, Adenosylhomocysteinase (Rattus norvegicus) (UniProt P10760).
T1 sequence (whole entry): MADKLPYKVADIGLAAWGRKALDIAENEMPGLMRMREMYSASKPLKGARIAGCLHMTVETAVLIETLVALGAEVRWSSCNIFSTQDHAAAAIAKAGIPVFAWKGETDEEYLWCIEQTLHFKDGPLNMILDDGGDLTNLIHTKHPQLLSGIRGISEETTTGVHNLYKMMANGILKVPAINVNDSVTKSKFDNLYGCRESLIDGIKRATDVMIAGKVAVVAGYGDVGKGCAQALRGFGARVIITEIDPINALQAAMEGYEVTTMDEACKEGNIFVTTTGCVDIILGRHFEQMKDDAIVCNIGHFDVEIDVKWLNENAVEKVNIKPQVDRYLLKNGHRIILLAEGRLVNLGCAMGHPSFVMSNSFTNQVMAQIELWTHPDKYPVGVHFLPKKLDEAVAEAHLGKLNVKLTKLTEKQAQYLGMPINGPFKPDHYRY
As to the kind of experiment: (§1) Inhibition constant for the compound was determined against the recombinant rat liver AdoHyc hydrolase (MV1304/pUCSAH).

The target in the next data set is T2, Adenosylhomocysteinase (Rattus norvegicus, UniProt P10760).
T2 sequence (P10760 whole entry): T1 sequence (whole entry)
The description is as §1.

Substrate in data set [2]: Nc1ncnc2c1ncn2[C@@H]1O[C@H](CSCC[C@H](N)C(=O)O)[C@@H](O)[C@H]1O
Description: Km for the compound was determined against the recombinant rat liver AdoHyc hydrolase (MV1304/pUCSAH)

On to `Nc1ncnc2c1ncn2C1OC(CSCC[C@H](N)C(=O)O)[C@@H](O)[C@H]1O` (stereo in doubt; form 2) [listing 1 of 2 here], for which the K inact in data set [1] was found to be 0.0049 min⁻¹.
The term Ki denotes the dissociation constant of the complex between target and ligand, obtained from inhibition or displacement. Regarding `CC(C)CSC[C@H]1OC(n2cnc3c(N)ncnc32)[C@H](O)[C@@H]1O` (some centres not stated), the K inact in data set [1] turned out to be 0.0488 min⁻¹. In addition, on Adenosylhomocysteinase, the Ki is 105 µM.
For the molecule `Nc1ncnc2c1ncn2C1OC(CSCC[C@H](N)C(=O)O)[C@@H](O)[C@H]1O` (stereo in doubt; form 1) [listing 1 of 2 here], at Adenosylhomocysteinase, the Ki turned out to be 1090 µM.
On the same count and under the same terms, with `Nc1ncnc2c1ncn2C1OC(CSCC[C@H](N)C(=O)O)[C@@H](O)[C@H]1O` (stereo in doubt; form 2) [listing 2 of 2 here] the figure was 345 µM.
`Nc1ncnc2c1ncn2C1OC(CSCC[C@H](N)C(=O)O)[C@@H](O)[C@H]1O` (stereo in doubt; form 1) [listing 2 of 2 here]: in data set [1], the K inact was found to be 0.0145 min⁻¹.

B1: Adenosylhomocysteinase (Rattus norvegicus), P10760 (protein)
chain: T1 sequence (whole entry)
The Km is the substrate concentration at which the rate is half of its maximum. For B1, the Km in data set [2] was 9.7 µM.
